From patent US9193673B2, “Derivatives of mesalazine, process of their preparation and their use in the treatment of intestinal inflammatory diseases” (SOFAR SPA, priority 2010, dated 2015)
Several values for one entry are separate records, joined by “and”; a condition that tells them apart may be missing. Identical values can stand only once. Entries after “also recorded” stand apart in the source; their conditions may differ. Like-named read-outs stand apart in the source and are kept apart here.

Key:
[1] = Stability in simulated gastric and simulated intestinal fluids; format: physicochemical
Description: Such study is conducted with the aim of evaluating the stability of the compound (IV) at […] in absence of enzymes of the intestinal bacterial flora.
(§1) The stability of the compound (IV) is compared to that of known reference standards.

[2] = Stability in rat plasma (hydrolysis by plasma esterases); format: in vitro ADME
Description: (§2) Such study is conducted with the aim of evaluating possible hydrolysis of the compound (IV) by the plasma esterases. The percentage of hydrolysis of the compound (IV) is compared to that of known reference standards.

[3] = Stability in human plasma (hydrolysis by plasma esterases); format: in vitro ADME
Description: as §2

[4] = Permeability on the Caco2 cellular line; format: in vitro ADME; conditions: human, Caco-2, Caco2
Description: (§3) Such study is conducted with the aim of evaluating the capacity of the molecule to permeate the intestinal epithelium and be absorbed thereby evaluating the Papp (apparent permeability coefficient). The Papp of the compound (IV) is compared to that of the known reference standards.

[5] = system: Caco2 cellular line; assay: Permeability on the Caco2 cellular line; format: in vitro ADME
Description: as §3

[6] = Stability in murine intestinal homogenate; format: in vitro ADME, rat
Description: Such study is conducted with the aim of evaluating the stability of the compound (IV) in intestinal homogenate.
as §1

[7] = In vivo pharmacokinetic in the rat after i.v. and p.o. administration of compound (IV)
[8] = system: DSS-induced colitis; assay: DSS-induced colitis model; format: in vivo; conditions: DSS 3% C57BL/6 mice
Source text: Experimental colitis models, such as the dextran sodium sulphate (DSS) model, are routinely available in our laboratory (1, 2). […] DSS-induced inflammation of the colon originates in the distal colon, progressing to involve the whole colon and in severe cases the caecum. In addition, the inflammation is confined to the mucosa and is generally not transmural. Furthermore, DSS-induced inflammation is not dependent on the presence of any specific intestinal bacterial flora.
Colon inflammation has been induced in C57BL/6 mice by the administration of DSS in the drinking water at concentrations of 3%, for 5 days.
Different parameters have been measured to test the efficacy of the selected compounds which are: • Clinical evaluation: daily recording weight and clinical activity (anal bleeding, presence of diarrhoea). This parameter has been quantified as percentage of body weight and DAI (Disease Activity Index) relating to anal bleeding and presence of diarrhoea. The lower the DAI is, the lower the anal bleeding is, thus better the therapeutic effect is. • Endoscopic evaluation: mice underwent endoscopy at the end of the treatment. This step is very important as most of the drugs used in human inflammatory bowel disease aim to achieve mucosal healing. • Histological colitis assessment: mice have been sacrificed at the end of the treatment, colons have been removed and histopathological analysis has been performed to assess the extent of tissue damage and recruitment of immune cells.
The therapeutic effect has been evaluated with different experimental procedures (a)-c)) representing either the active phase (a)) or the remission phase (b)-c)) of an intestinal inflammatory disease at different doses: • a) treatment of acute phase at 200 mg/kg/day • b) treatment of remission phase at 50 mg/kg/day • c) treatment of remission phase at 100 mg/kg/day […]

[9] = compound (IV) i.v. 5 mg/kg, rat, individual rats
[10] = compound (IV) i.v. 5 mg/kg, rat, individual rats, 5 mg/kg
[11] = compound (IV) oral gavage 50 mg/kg, rat, individual rats, 50 mg/kg

CCCC(=O)Oc1ccc(N)cc1C(=O)O.Cl [Compound (IV), 5-amino-2-(butyryloxy)benzoic acid]
% Residue ([1]; SGF, 30 min incubation): 97.3 ± 1.1% | % Residue ([1]; SGF, 60 min incubation): 99.9 ± 0.9% | % Residue ([1]; SIF, 30 min incubation): 97.4 ± 4.1% | % Residue ([1]; SIF, 60 min incubation): 103.2 ± 3.5% | Stability in SIF and SGF ([1]; both media): stable in both media | % Residue at 60 min ([2]; Rat plasma, 60 min): 8.5 ± 2.0% | Hydrolysis in plasma ([2]; murine plasma): high hydrolysis percentage | % hydrolysed ([2]; murine plasma, after 1 hour of incubation): 91.5% | % Residue at 60 min ([3]; Human plasma, 60 min): 32.7 ± 2.6% | Hydrolysis in plasma ([3]; human plasma): high hydrolysis percentage | % hydrolysed ([3]; human plasma, after 1 hour of incubation): 67.3% | Papp A→B ([4]; Apical (pH 6.5) → Basolateral (pH 7.4), read-out: Papp A→B (nm/sec) Mean ± SD): 0.59 ± 0.12 ×10⁻⁶ cm/s | Papp B→A ([4]; B→A, read-out: Papp B→A (nm/sec) Mean ± SD): 0.24 ± 0.03 ×10⁻⁶ cm/s | A→B Mean mass balance % ([5]; A→B, Caco2): 69% | B→A Mean mass balance % ([5]; B→A, Caco2): 99% | BA/AB ratio ([5]; Caco2): 0.41 | Permeability ([5]; Caco2): poor permeability | BA/AB ratio ([5]; Caco2, listed as compound (IV)): < 1 | Substrate of P-gp (glycoprotein P) ([5]; from BA/AB ratio, Caco2): does not seem to be a substrate of P-gp | Permeability class ([5]; through the basolateral membrane of the Caco2 cell line): low | Stability in the rat intestine ([6]; rat intestinal homogenate): very unstable in the rat intestine; also recorded: quickly metabolised in the rat intestine | Residue percentage ([6]; rat intestinal homogenate, 25 μM, 30 min): 9.8 ± 1.1% | Residue percentage ([6]; rat intestinal homogenate, 25 μM, 1 hr): 12.2 ± 1.6% | Residue percentage ([6]; rat intestinal homogenate, 25 μM, 2 hrs): 10.1 ± 4.4% | Residue percentage ([6]; rat intestinal homogenate, 25 μM, 4 hrs): 24.5 ± 1.3(*) % | Residue percentage ([6]; rat intestinal homogenate, 50 μM, 30 min): 5.6 ± 0.6% | Residue percentage ([6]; rat intestinal homogenate, 50 μM, 1 hr): 4.4 ± 1.1% | Residue percentage ([6]; rat intestinal homogenate, 50 μM, 2 hrs): 7.3 ± 1.0% | Residue percentage ([6]; rat intestinal homogenate, 50 μM, 4 hrs): 5.5 ± 1.1% | Hydrolysis ([6]; tested at two concentrations (25 and 50 μM)): 90-95% | Pharmacokinetic parameters ([7]; administered p.o. and i.v. in rats): good pharmacokinetic parameters | Metabolism in vivo ([7]; after i.v. and p.o. treatment, rat): metabolised quickly | Tlast [7, 9]: 1440 min | Tmax [7, 9]: 2 min | AUCinf [7, 10]: 18700 ng·min/mL and 22424 ng·min/mL | AUClast [7, 10]: 17271 ng·min/mL and 21300 ng·min/mL | Cl [7, 10]: 229.9 mL/min/kg and 191.8 mL/min/kg | Clast [7, 10]: 1.8 ng/mL and 1.7 ng/mL | Cmax [7, 10]: 529 ng/mL and 851.2 ng/mL | MRT [7, 10]: 3.48 h and 2.92 h | T½ [7, 10]: 547.1 min and 451.8 min | Vdss [7, 10]: 115.3 L/kg and 51.9 L/kg | Tlast Mean ([7]; compound (IV) i.v. 5 mg/kg, rat, mean): 1440 min | AUCinf [7, 11]: 3985 ng·min/mL and 5954 ng·min/mL | AUClast [7, 11]: 3943 ng·min/mL and 5925 ng·min/mL | Clast [7, 11]: 2.9 ng/mL and 0.8 ng/mL and 1.3 ng/mL | Cmax [7, 11]: 104 ng/mL and 174 ng/mL | MRTlast [7, 11]: 48 min and 32 min and 23 min | Tlast [7, 11]: 240 min (2×) and 120 min | Tmax [7, 11]: 30 min and 15 min and 5 min | Tlast Mean ([7]; compound (IV) oral gavage 50 mg/kg, rat, mean): 200 min | bioavailability ([7]; plasma, oral gavage 50 mg/kg vs i.v. 5 mg/kg, rat, read-out: Mean Fpo 0_inf (%) (mean p.o. bioavailability)): 2.4% | AUC(0-inf) ([7]; rat, plasma, iv, 5 mg/kg, compound (IV) i.v. 5 mg/kg, rat, individual rats, read-out: AUCinf (converted)): 341 ng·h/mL | AUC(0-t) ([7]; rat, plasma, iv, 5 mg/kg, compound (IV) i.v. 5 mg/kg, rat, individual rats, read-out: AUClast (converted)): 296 ng·h/mL | clearance ([7]; rat, plasma, iv, 5 mg/kg, compound (IV) i.v. 5 mg/kg, rat, individual rats, read-out: Cl): 210 mL/min/kg | concentration at 1440 min ([7]; rat, plasma, iv, 5 mg/kg, compound (IV) i.v. 5 mg/kg, rat, individual rats, read-out: Clast): 2.9 ng/mL | Cmax ([7]; rat, plasma, iv, 5 mg/kg, compound (IV) i.v. 5 mg/kg, rat, individual rats, read-out: Cmax): 598 ng/mL | MRT ([7]; rat, plasma, iv, 5 mg/kg, compound (IV) i.v. 5 mg/kg, rat, individual rats, read-out: MRT (converted)): 4.55 h | Tmax ([7]; rat, plasma, iv, 5 mg/kg, compound (IV) i.v. 5 mg/kg, rat, individual rats, read-out: Tmax (converted)): 2 min | half-life ([7]; rat, plasma, iv, 5 mg/kg, compound (IV) i.v. 5 mg/kg, rat, individual rats, read-out: T½): 638 min | AUC(0-inf) ([7]; rat, plasma, iv, 5 mg/kg, compound (IV) i.v. 5 mg/kg, rat, mean, read-out: AUCinf Mean (converted)): 342 ng·h/mL | AUC(0-t) ([7]; rat, plasma, iv, 5 mg/kg, compound (IV) i.v. 5 mg/kg, rat, mean, read-out: AUClast Mean (converted)): 313 ng·h/mL | clearance ([7]; rat, plasma, iv, 5 mg/kg, compound (IV) i.v. 5 mg/kg, rat, mean, read-out: Cl Mean): 211 mL/min/kg | concentration at 1440 min ([7]; rat, plasma, iv, 5 mg/kg, compound (IV) i.v. 5 mg/kg, rat, mean, read-out: Clast Mean): 2.1 ng/mL | Cmax ([7]; rat, plasma, iv, 5 mg/kg, compound (IV) i.v. 5 mg/kg, rat, mean, read-out: Cmax Mean): 659 ng/mL | MRT ([7]; rat, plasma, iv, 5 mg/kg, compound (IV) i.v. 5 mg/kg, rat, mean, read-out: MRT Mean (converted)): 3.65 h | Tmax ([7]; rat, plasma, iv, 5 mg/kg, compound (IV) i.v. 5 mg/kg, rat, mean, read-out: Tmax Mean (converted)): 2 min | half-life ([7]; rat, plasma, iv, 5 mg/kg, compound (IV) i.v. 5 mg/kg, rat, mean, read-out: T½ Mean): 546 min | Vd ([7]; rat, plasma, iv, 5 mg/kg, compound (IV) i.v. 5 mg/kg, rat, mean, read-out: Vdss Mean): 83.5 L/kg | concentration at 200 min ([7]; rat, plasma, oral, 50 mg/kg, compound (IV) oral gavage 50 mg/kg, rat, mean, read-out: Clast Mean): 2.8 ng/mL | concentration at 4 h ([7]; rat, plasma, po, 50 mg/kg, after p.o. administration, rat, 4 hours): 1 ng/mL | Cmax ([7]; rat, plasma, po, 50 mg/kg, after p.o. administration, rat, read-out: Cmax): 95 ng/mL | AUC(0-inf) ([7]; rat, plasma, po, 50 mg/kg, compound (IV) oral gavage 50 mg/kg, rat, individual rats, read-out: AUCinf (converted)): 76.5 ng·h/mL | AUC(0-t) ([7]; rat, plasma, po, 50 mg/kg, compound (IV) oral gavage 50 mg/kg, rat, individual rats, read-out: AUClast (converted)): 67.4 ng·h/mL | Cmax ([7]; rat, plasma, po, 50 mg/kg, compound (IV) oral gavage 50 mg/kg, rat, individual rats, read-out: Cmax): 89 ng/mL | AUC(0-inf) ([7]; rat, plasma, po, 50 mg/kg, compound (IV) oral gavage 50 mg/kg, rat, mean, read-out: AUCinf Mean (converted)): 80.7 ng·h/mL | AUC(0-t) ([7]; rat, plasma, po, 50 mg/kg, compound (IV) oral gavage 50 mg/kg, rat, mean, read-out: AUClast Mean (converted)): 77.3 ng·h/mL | Cmax ([7]; rat, plasma, po, 50 mg/kg, compound (IV) oral gavage 50 mg/kg, rat, mean, read-out: Cmax Mean): 122 ng/mL | MRT last ([7]; rat, plasma, po, 50 mg/kg, compound (IV) oral gavage 50 mg/kg, rat, mean, read-out: MRTlast Mean (converted)): 35 min | Tmax ([7]; rat, plasma, po, 50 mg/kg, compound (IV) oral gavage 50 mg/kg, rat, mean, read-out: Tmax Mean (converted)): 16.7 min | Therapeutic efficiency (DAI, endoscopic and histological scores) ([8]; a) acute (active) phase, 200 mg/kg/day orally): comparable therapeutic efficiency | Therapeutic activity (DAI, endoscopic and histological scores) vs 5-ASA, butyric acid, and their combined administration ([8]; b) remission phase, 50 mg/kg/day orally): better therapeutic activity | Therapeutic activity (DAI, endoscopic and histological scores) vs 5-ASA, butyric acid, and their combined administration ([8]; c) remission phase, 100 mg/kg/day orally): better therapeutic activity
